{"source": "patent US5616557A", "about": "“Process for selectively inhibiting activity of endotoxin” (Wako Pure Chemical Industries, Ltd., priority 1993, dated 1997)", "tested_on": "E. coli 0128:B12 LPS", "assay": "Limulus test of ET spiked plasma, Example 4", "format": "biochemical", "settings": "0.009 w/v % of Px B alone; ET 2 ng/ml, 80° C. 5 minutes (FIG. 4)", "procedure": "To 0.1 ml of the LAL solution was added 0.1 ml of the aforesaid diluted plasma, and stirred, after which a time required for reducing the transmittance of the resulting mixture by 5% (hereinafter abbreviated as \"Tg\") was measured while maintaining the temperature at 37° C. The ET concentration in the diluted plasma was determined on the basis of the thus obtained Tg value by use of a calibration curve showing the relationship between ET concentration and Tg which had been previously obtained by carrying out the same measurement as described above except for using ET solutions having various known concentrations in place of the samples.\nTo 1.3 ml of normal human heparinized plasma was added 13 μl of ET solution having a predetermined concentration, and 100 μl of the resulting ET spiked plasma was diluted 10 times with 900 μl of distilled water for injection, each of aqueous surfactant solutions having predetermined concentrations, each of aqueous Px B solutions having predetermined concentrations, or each of aqueous Px B solutions having predetermined concentrations and containing 0.1 w/v % or 0.2 w/v % of the surfactant (polyoxyethylene glycol p-t-octylphenyl ether), respectively. […] The ET concentration in the diluted plasma thus obtained was measured in the same manner as in Example 1."}
{"substance": "polymyxin B [Px B]", "values": [{"measurement": "ET activity in plasma", "value": "completely inhibited"}]}
